From patent US20200147243A1, “LIGAND COMPOUND OF ALPHA7 NICOTINIC ACETYLCHOLINE RECEPTOR AND APPLICATION THEREOF” (BEIJING NORMAL UNIVERSITY, priority 2017, published 2020)
Values joined by “and” are separate entries in the source; they are usually repeats but may differ in a detail not shown here. Identical values can stand only once.

Legend:
α4β2 nAChR = biological target: T1, α4β2 nAChR (Mus musculus, UniProt O70174+Q9ERK7); test: Selective experiment in mouse brain, cytisine pre-injection; type: in vivo, Kunming mice; conditions: 1 mg/kg cytisine s.c. 5 min in advance, 60 min after administration
T1 construct: from tissue
T1 sequence (O70174 31-629): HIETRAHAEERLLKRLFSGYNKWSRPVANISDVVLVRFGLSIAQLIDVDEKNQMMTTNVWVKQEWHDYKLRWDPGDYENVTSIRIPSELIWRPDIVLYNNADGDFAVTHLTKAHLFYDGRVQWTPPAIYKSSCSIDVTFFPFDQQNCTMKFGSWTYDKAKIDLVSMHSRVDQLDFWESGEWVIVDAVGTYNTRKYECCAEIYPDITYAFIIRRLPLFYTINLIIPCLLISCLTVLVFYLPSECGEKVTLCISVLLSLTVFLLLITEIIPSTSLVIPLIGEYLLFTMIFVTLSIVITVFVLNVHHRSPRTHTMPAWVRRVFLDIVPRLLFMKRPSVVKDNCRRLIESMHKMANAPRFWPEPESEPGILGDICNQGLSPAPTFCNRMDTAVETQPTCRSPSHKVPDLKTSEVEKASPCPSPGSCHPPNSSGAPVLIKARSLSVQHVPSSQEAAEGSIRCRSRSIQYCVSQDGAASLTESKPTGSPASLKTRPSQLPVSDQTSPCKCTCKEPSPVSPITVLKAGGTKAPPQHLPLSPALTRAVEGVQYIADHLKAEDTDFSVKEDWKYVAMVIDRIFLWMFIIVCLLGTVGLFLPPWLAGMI
T1 sequence (Q9ERK7 26-501): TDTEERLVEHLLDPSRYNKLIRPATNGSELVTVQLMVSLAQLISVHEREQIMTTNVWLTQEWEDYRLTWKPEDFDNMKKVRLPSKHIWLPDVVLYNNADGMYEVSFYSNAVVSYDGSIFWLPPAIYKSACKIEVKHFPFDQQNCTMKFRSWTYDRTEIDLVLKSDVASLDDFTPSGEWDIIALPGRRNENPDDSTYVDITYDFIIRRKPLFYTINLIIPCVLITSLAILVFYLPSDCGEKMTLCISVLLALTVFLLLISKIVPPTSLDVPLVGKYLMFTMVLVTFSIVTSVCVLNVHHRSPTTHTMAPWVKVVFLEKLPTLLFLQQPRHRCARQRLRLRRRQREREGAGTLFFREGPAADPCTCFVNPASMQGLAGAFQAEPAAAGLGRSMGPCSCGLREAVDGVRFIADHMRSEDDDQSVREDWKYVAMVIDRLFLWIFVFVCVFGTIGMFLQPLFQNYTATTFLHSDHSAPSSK
Method: (§1) The selectivity of radioligand for α4β2 nAChR was explored by subcutaneously injecting 1 mg/kg of cytisine (0.1 mL, with an equal volume of normal saline and 1,2-propanediol as solvents) 5 min in advance, whereas the selectivity for the 5-hydroxytryptamine receptor was explored by subcutaneously injecting 2 mg/kg of ondanstron (0.1 mL, with saline:DMSO=5:1 (V:V) as solvents) 10 min in advance. In the experiment, two groups of mice (n=5, Kunming females, 28-30 g) were injected with 0.1 mL (60 μCi) of [^18F]

[1] = biological target: T2, 5-hydroxytryptamine receptor (Mus musculus, UniProt P23979); test: Selective experiment in mouse brain, ondanstron pre-injection; type: in vivo, Kunming mice; conditions: 2 mg/kg ondanstron s.c. 10 min in advance, 60 min after administration
T2 construct: from tissue
T2 sequence (P23979 24-489): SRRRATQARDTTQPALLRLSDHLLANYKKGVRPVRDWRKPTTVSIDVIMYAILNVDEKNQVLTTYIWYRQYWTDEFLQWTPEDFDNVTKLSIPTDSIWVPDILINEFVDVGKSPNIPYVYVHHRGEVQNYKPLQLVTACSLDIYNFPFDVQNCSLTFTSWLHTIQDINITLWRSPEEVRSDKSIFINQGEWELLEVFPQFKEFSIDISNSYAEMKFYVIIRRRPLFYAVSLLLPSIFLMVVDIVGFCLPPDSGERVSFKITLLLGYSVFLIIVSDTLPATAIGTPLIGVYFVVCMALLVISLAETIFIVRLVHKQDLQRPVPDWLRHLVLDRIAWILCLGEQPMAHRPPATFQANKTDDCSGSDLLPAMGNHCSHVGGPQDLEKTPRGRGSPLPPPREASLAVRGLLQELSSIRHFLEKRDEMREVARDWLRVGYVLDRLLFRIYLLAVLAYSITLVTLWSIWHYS
Method: as §1

[2] = Experiment of brain region distribution; conditions: for Absorption, brain residual / Absorption, cerebellum / Absorption, corpus striatum / Absorption, cortex / Absorption, hippocampus / Absorption, superior and inferior colliculus / Absorption, thalamus: tail vein, female Kunming mice; for Tissue/cerebellum Ratio, corpus striatum / Tissue/cerebellum Ratio, cortex / Tissue/cerebellum Ratio, hippocampus / Tissue/cerebellum Ratio, superior and inferior colliculus / Tissue/cerebellum Ratio, thalamus: mouse brain
[3] = In vivo distribution experiment in animals; conditions: for brain/blood ratio / Absorption Amount, blood / Absorption Amount, bone / Absorption Amount, brain / Absorption Amount, heart / Absorption Amount, kidney / Absorption Amount, liver / Absorption Amount, lung / Absorption Amount, muscle / Absorption Amount, spleen: female Kunming mice; for Absorption Amount, blood / Absorption Amount, bone / Absorption Amount, brain / Absorption Amount, heart / Absorption Amount, kidney / Absorption Amount, liver / Absorption Amount, lung / Absorption Amount, muscle / Absorption Amount, spleen: tail vein

Structure (SMILES): O=C1c2cc(N3CCN4CCC3CC4)ccc2-c2cccc([18F])c21 [[^18F] II-15]
- difference in brain uptake between experimental group and control group (α4β2 nAChR): no significant difference
- difference in brain uptake between experimental group and control group [1]: no significant difference
- Absorption, brain residual ([2]; 5 min): 6.03 ± 0.23 % ID/g wet weight
- Absorption, brain residual ([2]; 15 min): 5.58 ± 0.50 % ID/g wet weight
- Absorption, brain residual ([2]; 30 min): 5.25 ± 0.80 % ID/g wet weight
- Absorption, brain residual ([2]; 60 min): 4.21 ± 0.22 % ID/g wet weight
- Absorption, brain residual ([2]; 90 min): 2.32 ± 0.26 % ID/g wet weight
- Absorption, cerebellum ([2]; 5 min): 5.83 ± 0.01 % ID/g wet weight
- Absorption, cerebellum ([2]; 15 min): 5.10 ± 0.35 % ID/g wet weight
- Absorption, cerebellum ([2]; 30 min): 4.53 ± 0.14 % ID/g wet weight
- Absorption, cerebellum ([2]; 60 min): 2.69 ± 0.10 % ID/g wet weight
- Absorption, cerebellum ([2]; 90 min): 1.53 ± 0.10 % ID/g wet weight
- Tissue/cerebellum Ratio, corpus striatum ([2]; 5 min): 1.20
- Absorption, corpus striatum ([2]; 5 min): 6.99 ± 0.31 % ID/g wet weight
- Tissue/cerebellum Ratio, corpus striatum ([2]; 15 min): 1.28
- Absorption, corpus striatum ([2]; 15 min): 6.55 ± 0.25 % ID/g wet weight
- Tissue/cerebellum Ratio, corpus striatum ([2]; 30 min): 1.85
- Absorption, corpus striatum ([2]; 30 min): 8.37±0.27 % ID/g wet weight
- Tissue/cerebellum Ratio, corpus striatum ([2]; 60 min): 1.87
- Absorption, corpus striatum ([2]; 60 min): 5.01 ± 0.31 % ID/g wet weight
- Tissue/cerebellum Ratio, corpus striatum ([2]; 90 min): 2.9 and 2.86
- Absorption, corpus striatum ([2]; 90 min): 4.37 ± 0.18 % ID/g wet weight
- Tissue/cerebellum Ratio, cortex ([2]; 5 min): 1.24
- Absorption, cortex ([2]; 5 min): 7.24 ± 0.33 % ID/g wet weight
- Tissue/cerebellum Ratio, cortex ([2]; 15 min): 1.63
- Absorption, cortex ([2]; 15 min): 8.31 ± 0.22 % ID/g wet weight
- Tissue/cerebellum Ratio, cortex ([2]; 30 min): 2.07
- Absorption, cortex ([2]; 30 min): 9.39±0.24 % ID/g wet weight
- Tissue/cerebellum Ratio, cortex ([2]; 60 min): 2.29
- Absorption, cortex ([2]; 60 min): 6.14 ± 0.34 % ID/g wet weight
- Tissue/cerebellum Ratio, cortex ([2]; 90 min): 2.5 and 2.47
- Absorption, cortex ([2]; 90 min): 3.77 ± 0.95 % ID/g wet weight
- Tissue/cerebellum Ratio, hippocampus ([2]; 5 min): 0.99
- Absorption, hippocampus ([2]; 5 min): 5.77 ± 0.17 % ID/g wet weight
- Tissue/cerebellum Ratio, hippocampus ([2]; 15 min): 1.20
- Absorption, hippocampus ([2]; 15 min): 6.12 ± 0.40 % ID/g wet weight
- Tissue/cerebellum Ratio, hippocampus ([2]; 30 min): 1.39
- Absorption, hippocampus ([2]; 30 min): 6.31±0.82 % ID/g wet weight
- Tissue/cerebellum Ratio, hippocampus ([2]; 60 min): 2.36
- Absorption, hippocampus ([2]; 60 min): 6.34 ± 0.72 % ID/g wet weight
- Tissue/cerebellum Ratio, hippocampus ([2]; 90 min): 3.6 and 3.63
- Absorption, hippocampus ([2]; 90 min): 5.54 ± 0.64 % ID/g wet weight
- Tissue/cerebellum Ratio, superior and inferior colliculus ([2]; 5 min): 1.08
- Absorption, superior and inferior colliculus ([2]; 5 min): 6.32 ± 0.67 % ID/g wet weight
- Tissue/cerebellum Ratio, superior and inferior colliculus ([2]; 15 min): 1.28
- Absorption, superior and inferior colliculus ([2]; 15 min): 6.53 ± 0.58 % ID/g wet weight
- Tissue/cerebellum Ratio, superior and inferior colliculus ([2]; 30 min): 1.31
- Absorption, superior and inferior colliculus ([2]; 30 min): 5.93 ± 0.52 % ID/g wet weight
- Tissue/cerebellum Ratio, superior and inferior colliculus ([2]; 60 min): 1.45
- Absorption, superior and inferior colliculus ([2]; 60 min): 3.90 ± 0.36 % ID/g wet weight
- Tissue/cerebellum Ratio, superior and inferior colliculus ([2]; 90 min): 1.86
- Absorption, superior and inferior colliculus ([2]; 90 min): 2.85 ± 0.10 % ID/g wet weight
- Tissue/cerebellum Ratio, thalamus ([2]; 5 min): 0.98
- Absorption, thalamus ([2]; 5 min): 5.74 ± 0.69 % ID/g wet weight
- Tissue/cerebellum Ratio, thalamus ([2]; 15 min): 1.11
- Absorption, thalamus ([2]; 15 min): 5.66 ± 0.34 % ID/g wet weight
- Tissue/cerebellum Ratio, thalamus ([2]; 30 min): 1.28
- Absorption, thalamus ([2]; 30 min): 5.80 ± 0.47 % ID/g wet weight
- Tissue/cerebellum Ratio, thalamus ([2]; 60 min): 1.82
- Absorption, thalamus ([2]; 60 min): 4.89 ± 0.04 % ID/g wet weight
- Tissue/cerebellum Ratio, thalamus ([2]; 90 min): 2.10
- Absorption, thalamus ([2]; 90 min): 3.19 ± 0.26 % ID/g wet weight
- in vivo defluorination phenomenon (bone absorption) ([3]; 5-90 min, mice): relatively weaker
- brain/blood ratio ([3]; 5 min): 6.23
- brain/blood ratio ([3]; 15 min): 9.57 and 9.35
- brain/blood ratio ([3]; 30 min): 9.57
- brain/blood ratio ([3]; 60 min): 8.03
- brain/blood ratio ([3]; 90 min): 6.98
- Absorption Amount, blood ([3]; 5 min): 1.43 ± 0.06 % ID/g wet weight
- Absorption Amount, blood ([3]; 15 min): 1.24 ± 0.16 % ID/g wet weight
- Absorption Amount, blood ([3]; 30 min): 1.03 ± 0.07 % ID/g wet weight
- Absorption Amount, blood ([3]; 60 min): 0.68 ± 0.01 % ID/g wet weight
- Absorption Amount, blood ([3]; 90 min): 0.52 ± 0.06 % ID/g wet weight
- Absorption Amount, bone ([3]; 5 min): 3.02 ± 0.11 % ID/g wet weight
- Absorption Amount, bone ([3]; 15 min): 4.55 ± 0.68 % ID/g wet weight
- Absorption Amount, bone ([3]; 30 min): 4.84 ± 0.18 % ID/g wet weight
- Absorption Amount, bone ([3]; 60 min): 7.27 ± 1.31 % ID/g wet weight
- Absorption Amount, bone ([3]; 90 min): 7.65 ± 0.52 % ID/g wet weight
- Absorption Amount, brain ([3]; 5 min): 8.98±0.41 % ID/g wet weight
- Absorption Amount, brain ([3]; 15 min): 11.60±0.14 % ID/g wet weight
- Absorption Amount, brain ([3]; 30 min): 9.86 ± 0.05 % ID/g wet weight
- Absorption Amount, brain ([3]; 60 min): 5.46±0.27 % ID/g wet weight
- Absorption Amount, brain ([3]; 90 min): 3.63±0.25 % ID/g wet weight
- Absorption Amount, heart ([3]; 5 min): 8.37 ± 0.14 % ID/g wet weight
- Absorption Amount, heart ([3]; 15 min): 4.45 ± 0.62 % ID/g wet weight
- Absorption Amount, heart ([3]; 30 min): 3.56 ± 0.31 % ID/g wet weight
- Absorption Amount, heart ([3]; 60 min): 2.19 ± 0.16 % ID/g wet weight
- Absorption Amount, heart ([3]; 90 min): 1.71 ± 0.13 % ID/g wet weight
- Absorption Amount, kidney ([3]; 5 min): 15.92 ± 0.24 % ID/g wet weight
- Absorption Amount, kidney ([3]; 15 min): 11.54 ± 0.79 % ID/g wet weight
- Absorption Amount, kidney ([3]; 30 min): 8.06 ± 0.69 % ID/g wet weight
- Absorption Amount, kidney ([3]; 60 min): 4.85 ± 0.443 % ID/g wet weight
- Absorption Amount, kidney ([3]; 90 min): 4.26 ± 0.19 % ID/g wet weight
- Absorption Amount, liver ([3]; 5 min): 8.19 ± 1.19 % ID/g wet weight
- Absorption Amount, liver ([3]; 15 min): 12.28 ± 1.96 % ID/g wet weight
- Absorption Amount, liver ([3]; 30 min): 13.74 ± 1.36 % ID/g wet weight
- Absorption Amount, liver ([3]; 60 min): 9.74 ± 0.07 % ID/g wet weight
- Absorption Amount, liver ([3]; 90 min): 7.46 ± 0.19 % ID/g wet weight
- Absorption Amount, lung ([3]; 5 min): 70.52 ± 7.86 % ID/g wet weight
- Absorption Amount, lung ([3]; 15 min): 20.23 ± 1.51 % ID/g wet weight
- Absorption Amount, lung ([3]; 30 min): 18.30 ± 1.56 % ID/g wet weight
- Absorption Amount, lung ([3]; 60 min): 7.64 ± 0.99 % ID/g wet weight
- Absorption Amount, lung ([3]; 90 min): 4.99 ± 0.45 % ID/g wet weight
- Absorption Amount, muscle ([3]; 5 min): 5.51 ± 0.65 % ID/g wet weight
- Absorption Amount, muscle ([3]; 15 min): 3.48 ± 0.40 % ID/g wet weight
- Absorption Amount, muscle ([3]; 30 min): 2.36 ± 0.30 % ID/g wet weight
- Absorption Amount, muscle ([3]; 60 min): 1.79 ± 0.06 % ID/g wet weight
- Absorption Amount, muscle ([3]; 90 min): 1.32 ± 0.11 % ID/g wet weight
- Absorption Amount, spleen ([3]; 5 min): 7.72 ± 0.65 % ID/g wet weight
- Absorption Amount, spleen ([3]; 15 min): 11.58 ± 0.92 % ID/g wet weight
- Absorption Amount, spleen ([3]; 30 min): 8.67 ± 0.48 % ID/g wet weight
- Absorption Amount, spleen ([3]; 60 min): 4.08 ± 0.38 % ID/g wet weight
- Absorption Amount, spleen ([3]; 90 min): 2.97 ± 0.25 % ID/g wet weight
